Data from article PMC7393058, “Design, Synthesis, Molecular Modeling Study and Biological Evaluation of New N'-Arylidene-pyrido [2,3-d]pyrimidine-5-carbohydrazide Derivatives as Anti-HIV-1 Agents” (Iranian Journal of Pharmaceutical Research : IJPR, 2019).
Like-named read-outs stand apart in the source and are kept apart here.

Key:
[1] = system: single cycle replicable HIV NL4-3; test: single-round replication assay, inhibition of p24 expression (capture ELISA) in Hela cells; assay type: cell-based, HIV-1; conditions: for SI=CC50/EC50: selectivity index, CC50/EC50 ratio
Protocol: (§1) The evaluation of inhibitory effect of synthesized compounds was performed by single-round replication assay which was evaluated in our laboratory and reported previously ([34]-[40]). Briefly, Hela cells (6 × 10^3 per well of 96-wells plate) were incubated with single cycle replicable HIV NL4-3 virions (200 ng p24) in the presence of various concentrations of compounds which were added concurrently with viral infection. The supernatants were collected 72 h postinfection and evaluated for p24 antigen load by capture ELISA (Biomerieux, France). Percentage inhibition of p24 expression in the treated culture was calculated as inhibition rate of p24 (%). The 50% effective concentration (EC50) was determined for each compound. XTT proliferation method was performed to evaluate the cellular toxicity of compounds. Toxicities of the compounds against the cells were quantified using XTT (sodium 3-[1 (phenyl aminocarbonyl)-3,4-tetrazolium]-bis(4-methoxy-6-nitro)benzene sulfonic acid) reagent, according to the kit instruction (Roche, Germany) ([41], [42]). Concentration which reduces proliferation of 50% of cells (CC50) was calculated subsequent to determination of p24 load. For EC50 and CC50 determinations, the compounds were tested at six concentrations ([…]) in triplicates.
(§2) All new synthesized compounds were evaluated for their activity against single cycle replicable HIV NL4-3 by determining their ability to inhibit p24 expression in Hela cell cultures. The well-known nucleoside RT inhibitor (AZT) was assayed in the same cells for comparative purpose. They all were then subjected to cell based XTT colorimetric assay for cytotoxicity to ensure that the anti-HIV-1 activity of the compounds was not a result of their cytotoxic effects ([43], [44]). The biological results are expressed as EC50, CC50, and SI (selectivity index, given by the CC50/EC50 ratio). […] When comparing the anti-HIV-1 activity of tested compounds, it appeared that the presence of substituents on benzylidene fragment confers better inhibition than the unsubstituted counterparts (compound 5a, EC50 >[…]).

[2] = system: Hela cells; test: XTT proliferation (cytotoxicity) assay; assay type: cell-based, human
Protocol: as §1, §2

[3] = XTT proliferation (cytotoxicity) assay; assay type: cell-based, human; conditions: human; XTT, Hela cells
Protocol: as §1, §2

[4] = Human immunodeficiency virus 1, NL43, HeLa, 72 h

Question: For `Cc1ccccc1C=NNC(=O)c1cc(=O)[nH]c2c1c(=O)n(C)c(=O)n2C`, which melting point is on record?
Answer: 277 °C (dec.)

Question: For `Cn1c(=O)c2c(C(=O)NN=Cc3ccc(F)cc3)cc(=O)[nH]c2n(C)c1=O`, which melting point is on record?
Answer: 220.7 to 221.3 °C

Question: With `Cc1cn([C@H]2C[C@H](N=[N+]=[N-])[C@@H](CO)O2)c(=O)[nH]c1=O` [AZT, reference compound] as the compound, how does the EC50 ([1]; inhibition of p24 expression, Hela cells, 72 h postinfection, triplicates, read-out: EC50) read?
Answer: 0.018 µM

Question: And the CC50 [2]?
Answer: > 200 µM

Question: What does the source list for `Cn1c(=O)c2c(C(=O)NN=Cc3ccccc3)cc(=O)[nH]c2n(C)c1=O` [Compound 5a, N’-benzylidene-1,3-dimethyl-2,4,7-trioxo-1,2,3,4,7,8-hexahydropyrido[2,3-d]pyrimidine-5-carbohydrazide]?
Answer: EC50 [1, 4]: > 200 µM; SI=CC50/EC50 [1]: 1.2; CC50 at 72 h [3]: > 200 µM; melting point: 286 °C (dec.)

Question: Which EC50 [1, 4] does the source give for `COc1ccccc1C=NNC(=O)c1cc(=O)[nH]c2c1c(=O)n(C)c(=O)n2C` [Compound 5b, N’-(2-methoxybenzylidene)-1,3-dimethyl-2,4,7-trioxo-1,2,3,4,7,8-hexahydropyrido[2,3-d]pyrimidine-5-carbohydrazide] here?
Answer: 120 µM

Question: What about the “SI=CC50/EC50” value [1] of the same compound?
Answer: 3.75

Question: What about the CC50 at 72 h [3] of the same compound?
Answer: > 200 µM

Question: And the melting point?
Answer: 231 °C (dec.)

Question: For `COc1cccc(C=NNC(=O)c2cc(=O)[nH]c3c2c(=O)n(C)c(=O)n3C)c1` [Compound 5c, N’-(3-methoxybenzylidene)-1,3-dimethyl-2,4,7-trioxo-1,2,3,4,7,8-hexahydropyrido[2,3-d]pyrimidine-5-carbohydrazide], which EC50 [1, 4] is on record?
Answer: 180 µM

Question: And the “SI=CC50/EC50” value [1]?
Answer: 1.1

Question: What about the CC50 at 72 h [3] of the same compound?
Answer: > 200 µM

Question: And the melting point?
Answer: 231 °C (dec.)

Question: With `COc1ccc(C=NNC(=O)c2cc(=O)[nH]c3c2c(=O)n(C)c(=O)n3C)cc1` [Compound 5d, N’-(4-methoxybenzylidene)-1,3-dimethyl-2,4,7-trioxo-1,2,3,4,7,8-hexahydropyrido[2,3-d]pyrimidine-5-carbohydrazide] as the compound, how does the EC50 [1, 4] read?
Answer: 140 µM

Question: And the “SI=CC50/EC50” value [1]?
Answer: 1.3

Question: What about the CC50 at 72 h [3] of the same compound?
Answer: 185 µM

Question: And the melting point?
Answer: 231 °C (dec.)

Question: What does the source list for `Cn1c(=O)c2c(C(=O)NN=Cc3ccccc3Cl)cc(=O)[nH]c2n(C)c1=O` [Compound 5e, N’-(2-chlorobenzylidene)-1,3-dimethyl-2,4,7-trioxo-1,2,3,4,7,8-hexahydropyrido[2,3-d]pyrimidine-5-carbohydrazide]?
Answer: EC50 [1, 4]: 155 µM; SI=CC50/EC50 [1]: 2.4; CC50 at 72 h [3]: > 200 µM; melting point: 297 °C (dec.)

Question: Which results are given for `Cn1c(=O)c2c(C(=O)NN=Cc3cccc(Cl)c3)cc(=O)[nH]c2n(C)c1=O` [Compound 5f, N’-(3-chlorobenzylidene)-1,3-dimethyl-2,4,7-trioxo-1,2,3,4,7,8-hexahydropyrido[2,3-d]pyrimidine-5-carbohydrazide]?
Answer: EC50 [1, 4]: 120 µM; SI=CC50/EC50 [1]: 3.75; CC50 at 72 h [3]: > 200 µM; melting point: 302 °C (dec.)

Question: Which results are given for `Cn1c(=O)c2c(C(=O)NN=Cc3ccc(Cl)cc3)cc(=O)[nH]c2n(C)c1=O` [Compound 5g, N’-(4-chlorobenzylidene)-1,3-dimethyl-2,4,7-trioxo-1,2,3,4,7,8-hexahydropyrido[2,3-d]pyrimidine-5-carbohydrazide]?
Answer: EC50 [1, 4]: 110 µM; SI=CC50/EC50 [1]: 4.5; CC50 at 72 h [3]: > 200 µM; melting point: 305 °C (dec.)

Question: Which EC50 [1, 4] does the source give for `Cc1cccc(C=NNC(=O)c2cc(=O)[nH]c3c2c(=O)n(C)c(=O)n3C)c1` [Compound 5i, 1,3-Dimethyl-N’-(3-methylbenzylidene)-2,4,7-trioxo-1,2,3,4,7,8-hexahydropyrido[2,3-d]pyrimidine-5-carbohydrazide] here?
Answer: 125 µM

Question: And the “SI=CC50/EC50” value [1]?
Answer: 4.8

Question: What about the CC50 at 72 h [3] of the same compound?
Answer: > 200 µM

Question: And the melting point?
Answer: 280 °C (dec.)

Question: For `Cc1ccc(C=NNC(=O)c2cc(=O)[nH]c3c2c(=O)n(C)c(=O)n3C)cc1` [Compound 5j, 1,3-Dimethyl-N’-(4-methylbenzylidene)-2,4,7-trioxo-1,2,3,4,7,8-hexahydropyrido[2,3-d]pyrimidine-5-carbohydrazide], which EC50 [1, 4] is on record?
Answer: 90 µM

Question: And the CC50 at 72 h [3]?
Answer: > 200 µM

Question: And the melting point?
Answer: 284 °C (dec.)

Question: Which EC50 [1, 4] does the source give for `Cn1c(=O)c2c(C(=O)NN=Cc3cccc(F)c3)cc(=O)[nH]c2n(C)c1=O` [Compound 5k, N’-(3-fluorobenzylidene)-1,3-dimethyl-2,4,7-trioxo-1,2,3,4,7,8-hexahydropyrido[2,3-d]pyrimidine-5-carbohydrazide] here?
Answer: 140 µM

Question: What about the “SI=CC50/EC50” value [1] of the same compound?
Answer: 2.7

Question: What about the CC50 at 72 h [3] of the same compound?
Answer: > 200 µM

Question: And the melting point?
Answer: 287 °C (dec.)
